# Experimental data as given in paper PMC4414177, “A novel orally active water-soluble inhibitor of human glutathione transferase exerts a potent and selective antitumor activity against human melanoma xenografts” (Oncotarget, 2015).
# Assays:
# SK23-MEL cells [1] = test: Melanin content; format: cell-based, human; settings: 7 μM, 48 hrs, p < 0.05
# Experimental: (§1) Cells (1×10^6) were lysed in 1M NaOH at 100°C, for 1 hour and then centrifuged at 15,000 g, for 20 minutes. […] Tyrosinase activity was examined by measuring spectrophotometrically at 475 nm the rate of L-DOPA oxidation to dopachrome over 1 hour at 37°C. Cells [1×10^6 in 40 μl of 20 mM potassium phosphate buffer (pH 6.8) containing 1% Triton X-100 and 1 mM PMSF] were disrupted by freezing and thawing and centrifuged at 15,000 g for 20 minutes at 4°C. The assay was started by addition of 100 μl of 2 mg/ml L-DOPA to 40 μl of supernatant. Tyrosinase activity was expressed as change in absorbance, per hour, per 10^6 cells.
# SK23-MEL cells [2] = test: Annexin V / PI staining (flow cytometry); format: cell-based, human; settings: 48 hrs of treatment
# Experimental: (§2) A375 and SK23-MEL cells, were fixed with 70% ethanol overnight, stained with PI staining buffer ([…] and 1% Triton X-100) and analyzed by a FACSCalibur (BD Bioscence, San Jose, CA, USA). The percentage of early apoptotic, late apoptotic, and necrotic cells was determined by simultaneous staining of cells with PI (2 μg/ml) and Annexin V-FITC (0.5 μg/ml) (Sigma Aldrich), according to manufacturer's protocol. Flow cytometric data were analyzed by the FlowJo 8.8.6 software (Tree Stare, Inc, Ashland, OR, USA).
# A375 cells [3] = test: Annexin V / PI staining (flow cytometry); format: cell-based, human
# Experimental: as §2
# [4] = test system: G-361 human melanoma cells; test: G-361 cellular xenograft model, antitumor efficacy; format: in vivo, mice; settings: G-361 xenograft
# Experimental: (§3) SK23-MEL and G-361 cells were injected s.c. (in both cases, 1×10^6) into the right flank of NOD/SCID and SCID male mice, respectively. Animals were randomly divided in groups of 6 mice and treatments were started at day 10 (SK23-MEL) and 14 (G-361), when tumors were clearly palpable.
# (§4) Primary tumor growth was determined for all animals by caliper measurement (minor and major axis length), three times per week, until they were sacrificed. Primary tumor volume was determined using the following equation: V (cm^3)=(α^2×β)/2 (Eq. 3)
# (§5) The efficacy of the treatment was also analyzed by calculation of the percentage of Increase in Life Span (% ILS), since this analysis gives an evidence of clinical potency. Survival endpoint for each animal was fixed at the day when tumor volume reached 1.0 cm^3 (A375) or 0.4 cm^3 (SK23-MEL and G-361), and data were used to plot the relative Kaplan-Meier curves. Treatment efficacy was then evaluated by comparing the Median Survival Time (MST) of treated group with the MST of control group, and expressed as percentage of ILS: % ILS=[100×(MSTtreated group)/(MSTcontrol group)]−100 (Eq. 4)
# (§6) Treatment was considered effective when % ILS > 20%.
# SK23-MEL cells [5] = test: Tyrosinase activity; format: cell-based, human; settings: 7 μM, 48 hrs, p < 0.005
# Experimental: as §1
# SK23-MEL cells [6] = test: Cell cycle analysis (PI, flow cytometry); format: cell-based, human; settings: 7 μM
# Experimental: as §2
# A375 cells [7] = test: Cell cycle analysis (PI, flow cytometry); format: cell-based, human; settings: A375, 10 μM
# Experimental: as §2
# [8] = test system: SK23-MEL human melanoma cells; test: SK23-MEL cellular xenograft model, antitumor efficacy; format: in vivo, mice; settings: 8 mg/kg/day i.v. or oral, q1dx5 three weeks
# Experimental: as §3, §4, §5, §6
structure (smiles),measurement,setting,value
"O=[N+]([O-])c1ccc(SCCOCCOCCO)c2nonc12 [MC3181, 2-(2-(2-((7-nitrobenzo[c][1,2,5]oxadiazol-4-yl)thio)ethoxy)ethoxy)ethanol]",melanin content,SK23-MEL cells [1],significant increase
same,percentage of total apoptotic cells,SK23-MEL cells [2],about 20%
same,percentage of total apoptotic cells,"A375 cells [3]; A375, 24 hrs post-treatment",approximately 23%
same,percentage of total apoptotic cells,"A375 cells [3]; A375, 48 hrs post-treatment",~37%
same,animals still alive at the end of the observation period,[4]; 8 mg/kg/day oral,50%
same,disease course,[4]; 8 mg/kg/day oral,stabilization and regression of the disease in half of the treated mice
same,tumor growth,"[4]; 8 mg/kg/day, both administration routes (i.v., oral)",significant delay in tumor growth
same,tyrosinase activity,SK23-MEL cells [5],significant increase
same,increase in the number of cells in sub-G1 phase,SK23-MEL cells [6]; 24 hrs,about 10%
same,increase in the number of cells in sub-G1 phase,SK23-MEL cells [6]; 48 hrs,~20%
same,increase in the amount of cells in the sub-G1 phase,A375 cells [7]; 24 hrs,about 27%
same,increase in the amount of cells in the sub-G1 phase,A375 cells [7]; 48 hrs,~36%
same,ILS,[8],< 20%
same,tumor growth,[8],a certain degree of delay in tumor growth
